# According to ChEMBL document CHEMBL4308841, “Synthesis, in vitro antiproliferative activity, and kinase inhibitory effects of pyrazole-containing diarylureas and diarylamides” (Eur J Med Chem, 2018):
# How the values were obtained:
# SF-539 = experiment: Growth inhibition of human SF539 cells assessed as cell growth at 100 uM incubated for 48 hrs by sulforhodamine B assay relative to control; format: functional; conditions: SF-539, 48 h, read-out: Activity
# SK-MEL-5 = experiment: Growth inhibition of human SK-MEL-5 cells assessed as cell growth at 100 uM incubated for 48 hrs by sulforhodamine B assay relative to control; format: functional; conditions: SK-MEL-5, 48 h, read-out: Activity
# MDA-MB-468 = experiment: Growth inhibition of human MDA-MB-468 cells assessed as cell growth at 100 uM incubated for 48 hrs by sulforhodamine B assay relative to control; format: functional; conditions: MDA-MB-468, 48 h, read-out: Activity
# SN12C = experiment: Growth inhibition of human SN12C cells assessed as cell growth at 1 uM incubated for 48 hrs by sulforhodamine B assay relative to control; format: functional; conditions: read-out: Activity
# CAKI-1 = experiment: Growth inhibition of human Caki1 cells assessed as cell growth at 0.1 uM incubated for 48 hrs by sulforhodamine B assay relative to control; format: functional; conditions: CAKI-1, 48 h, read-out: Activity
# MDA-MB-231 [1] = experiment: Growth inhibition of human MDA-MB-231 cells assessed as cell growth at 100 uM incubated for 48 hrs by sulforhodamine B assay relative to control; format: functional; conditions: MDA-MB-231, 48 h, read-out: Activity
# HL-60(TB) = experiment: Growth inhibition of human HL-60(TB) cells assessed as cell growth at 0.01 uM incubated for 48 hrs by sulforhodamine B assay relative to control; format: functional; conditions: HL-60, 48 h, read-out: Activity
# NCI-H322M [2] = experiment: Growth inhibition of human NCI-H322M cells assessed as cell growth at 0.1 uM incubated for 48 hrs by sulforhodamine B assay relative to control; format: functional; conditions: read-out: Activity
# M14 = experiment: Growth inhibition of human M14 cells assessed as cell growth at 0.1 uM incubated for 48 hrs by sulforhodamine B assay relative to control; format: functional; conditions: M14, 48 h, read-out: Activity
# NCI-H226 = experiment: Growth inhibition of human NCI-H226 cells assessed as cell growth at 100 uM incubated for 48 hrs by sulforhodamine B assay relative to control; format: functional; conditions: NCI-H226, 48 h, read-out: Activity
# NCI/ADR-RES = experiment: Growth inhibition of human NCI/ADR-RES cells assessed as cell growth at 1 uM incubated for 48 hrs by sulforhodamine B assay relative to control; format: functional; conditions: read-out: Activity
# UACC-257 = experiment: Growth inhibition of human UACC257 cells incubated for 48 hrs by sulforhodamine B assay; format: functional, cell-based; conditions: UACC-257, 48 h
# KM12 [3] = experiment: Growth inhibition of human KM12 cells assessed as cell growth at 0.1 uM incubated for 48 hrs by sulforhodamine B assay relative to control; format: functional; conditions: KM12, 48 h, read-out: Activity
# KM12 [4] = experiment: Growth inhibition of human KM12 cells assessed as cell growth at 0.01 uM incubated for 48 hrs by sulforhodamine B assay relative to control; format: functional; conditions: KM12, 48 h, read-out: Activity
# SNB-19 = experiment: Growth inhibition of human SNB19 cells incubated for 48 hrs by sulforhodamine B assay; format: functional, cell-based; conditions: SNB-19, 48 h
# MOLT-4 = experiment: Growth inhibition of human MOLT4 cells incubated for 48 hrs by sulforhodamine B assay; format: functional, cell-based; conditions: MOLT-4, 48 h
# NCI-H460 = experiment: Growth inhibition of human NCI-H460 cells assessed as cell growth at 0.01 uM incubated for 48 hrs by sulforhodamine B assay relative to control; format: functional; conditions: NCI-H460, 48 h, read-out: Activity
# NCI-H522 = experiment: Growth inhibition of human NCI-H522 cells assessed as cell growth at 0.1 uM incubated for 48 hrs by sulforhodamine B assay relative to control; format: functional; conditions: NCI-H522, 48 h, read-out: Activity
# SNB-75 = experiment: Growth inhibition of human SNB75 cells assessed as cell growth at 0.01 uM incubated for 48 hrs by sulforhodamine B assay relative to control; format: functional; conditions: SNB-75, 48 h, read-out: Activity
# MDA-MB-231 [5] = experiment: Growth inhibition of human MDA-MB-231 cells incubated for 48 hrs by sulforhodamine B assay; format: functional, cell-based; conditions: MDA-MB-231, 48 h
# MDA-MB-435 = experiment: Growth inhibition of human MDA-MB-435 cells assessed as cell growth at 0.01 uM incubated for 48 hrs by sulforhodamine B assay relative to control; format: functional; conditions: MDA-MB-435, 48 h, read-out: Activity
# HCC 2998 = experiment: Growth inhibition of human HCC2998 cells incubated for 48 hrs by sulforhodamine B assay; format: functional, cell-based; conditions: HCC 2998, 48 h
# SK-MEL-2 = experiment: Growth inhibition of human SK-MEL-2 cells assessed as cell growth at 100 uM incubated for 48 hrs by sulforhodamine B assay relative to control; format: functional; conditions: SK-MEL-2, 48 h, read-out: Activity
# PC-3 = experiment: Growth inhibition of human PC3 cells incubated for 48 hrs by sulforhodamine B assay; format: functional, cell-based; conditions: PC-3, 48 h
# CCRF-CEM = experiment: Growth inhibition of human CCRF-CEM cells assessed as cell growth at 1 uM incubated for 48 hrs by sulforhodamine B assay relative to control; format: functional; conditions: read-out: Activity
# MCF7 = experiment: Growth inhibition of human MCF7 cells assessed as cell growth at 1 uM incubated for 48 hrs by sulforhodamine B assay relative to control; format: functional; conditions: MCF7, 48 h, read-out: Activity
# DU-145 = experiment: Growth inhibition of human DU145 cells assessed as cell growth at 0.01 uM incubated for 48 hrs by sulforhodamine B assay relative to control; format: functional; conditions: DU-145, 48 h, read-out: Activity
# NCI-H322M [6] = experiment: Growth inhibition of human NCI-H322M cells assessed as cell growth at 0.01 uM incubated for 48 hrs by sulforhodamine B assay relative to control; format: functional; conditions: read-out: Activity
# [7] = read-out: LC50 (the source's name)
# [8] = read-out: pLC50 (the source's name) (converted)
smiles,measurement,setting,value
O=C(Nc1cccc(-n2cc(-c3ccncc3)c(-c3cc(O)cc(Cl)c3)n2)c1)Nc1ccc(Cl)c(C(F)(F)F)c1,growth at 100 µM,SF-539,-50%
same,growth at 100 µM,SK-MEL-5,-97%
same,growth at 100 µM,MDA-MB-468,-29%
same,growth at 1 µM,SN12C,97%
same,growth at 0.1 µM,CAKI-1,103%
same,growth at 100 µM,MDA-MB-231 [1],-38%
same,growth at 0.01 µM,HL-60(TB),95%
same,growth at 0.1 µM,NCI-H322M [2],101%
same,growth at 0.1 µM,M14,91%
same,growth at 100 µM,NCI-H226,-38%
same,growth at 1 µM,NCI/ADR-RES,97%
same,GI50,UACC-257; read-out: GI50,1.99 µM
same,CC50,UACC-257; [7],19.2 µM
same,TGI,UACC-257; read-out: TGI,63.4 µM
same,GI50,UACC-257; read-out: pGI50 (converted),2 µM
same,CC50,UACC-257; [8],19.1 µM
same,TGI,UACC-257; read-out: pTGI (converted),5.37 µM
same,growth at 0.1 µM,KM12 [3],92%
same,growth at 0.01 µM,KM12 [4],91%
same,GI50,SNB-19; read-out: GI50,3.7 µM
same,CC50,SNB-19; [7],> 100 µM
same,TGI,SNB-19; read-out: TGI,15.9 µM
same,GI50,SNB-19; read-out: pGI50 (converted),3.72 µM
same,CC50,SNB-19; [8],> 100 µM
same,TGI,SNB-19; read-out: pTGI (converted),16.6 µM
same,GI50,MOLT-4; read-out: GI50,1.99 µM
same,CC50,MOLT-4; [7],> 100 µM
same,TGI,MOLT-4; read-out: TGI,58.1 µM
same,GI50,MOLT-4; read-out: pGI50 (converted),2 µM
same,CC50,MOLT-4; [8],> 100 µM
same,TGI,MOLT-4; read-out: pTGI (converted),5.75 µM
same,growth at 0.01 µM,NCI-H460,101%
same,growth at 0.1 µM,NCI-H522,83%
same,growth at 0.01 µM,SNB-75,53%
same,GI50,MDA-MB-231 [5]; read-out: GI50,1.55 µM
same,CC50,MDA-MB-231 [5]; [7],> 100 µM
same,TGI,MDA-MB-231 [5]; read-out: TGI,50.6 µM
same,GI50,MDA-MB-231 [5]; read-out: pGI50 (converted),1.86 µM
same,CC50,MDA-MB-231 [5]; [8],> 100 µM
same,TGI,MDA-MB-231 [5]; read-out: pTGI (converted),5.89 µM
same,growth at 0.01 µM,MDA-MB-435,97%
same,GI50,HCC 2998; read-out: GI50,3.93 µM
same,CC50,HCC 2998; [7],43 µM
same,TGI,HCC 2998; read-out: TGI,13.4 µM
same,GI50,HCC 2998; read-out: pGI50 (converted),3.89 µM
same,CC50,HCC 2998; [8],42.7 µM
same,TGI,HCC 2998; read-out: pTGI (converted),13.5 µM
same,growth at 100 µM,SK-MEL-2,-88%
same,IC50,PC-3,2.1 µM
same,GI50,PC-3; read-out: GI50,2.1 µM
same,CC50,PC-3; [7],90.3 µM
same,TGI,PC-3; read-out: TGI,84.2 µM
same,GI50,PC-3; read-out: pGI50 (converted),2.63 µM
same,CC50,PC-3; [8],79.4 µM
same,TGI,PC-3; read-out: pTGI (converted),6.46 µM
same,growth at 1 µM,CCRF-CEM,92%
same,growth at 1 µM,MCF7,91%
same,growth at 0.01 µM,DU-145,103%
same,growth at 0.01 µM,NCI-H322M [6],107%
